From patent US11903990B2, “Compositions and methods for treating and removing seborrheic keratoses” (priority 2017, dated 2024)

Tested on: seborrheic keratoses (SKs)
Assay: Formulary and performance observations on ingredients added to the SK treatment compositions
Assay type: in vivo, human
Details: for performance on addition to the BWE composition: added antioxidant, with BWE; for improvement of the treatment of seborrheic keratosis: dietary antioxidant
Description: A number of formulary and performance observations were made in the various aforementioned pilot and case studies as well as additional variants thereof not reported here. […] Additionally, the addition of keratolytic agents and emollients appeared to help keep the composition from drying and improved the penetration of the composition into the SK.

Row | Compound | performance on addition to the BWE composition | improvement of the treatment of seborrheic keratosis
1 | CC(=O)N[C@@H](CS)C(=O)O [N-acetyl cysteine] | no visible improvement | not found to improve
2 | O=C(O)/C=C/c1ccc(O)c(O)c1 [caffeic acid] | no visible improvement | not found to improve
3 | CC(C)=CCC/C(C)=C/C=C/C(C)=C/C=C/C(C)=C/C=C/C=C(C)/C=C/C=C(C)/C=C/C=C(\C)CCC=C(C)C [lycopene] | no visible improvement | not found to improve
4 | Oc1ccc(C=Cc2cc(O)cc(O)c2)cc1 [resveratrol] | no visible improvement | not found to improve
